Assay results from patent publication US20200016207A1, “[…] c-MPL PROVIDES LIGAND-DEPENDENT CO-STIMULATION AND CYTOKINE SIGNALS TO TCR-ENGINEERED T CELLS” (Baylor College of Medicine, priority 2017, published 2020).

Assays:
[1] = system: immune synapses between TCR+c-MPL+ T cells and BV173 leukemia cells; assay: Immunological synapse imaging (confocal microscopy); format: cell-based, human; settings: mean±SD
Protocol: T cells isolated from sequential killing co-cultures and fresh BV173 target cells were mixed at E:T 1:2, incubated for 10 minutes, fixed, permeabilized, stained with the appropriate antibodies, and analyzed on a Leica TCS SP8 laser scanning microscope. T cells were co-cultured with BV173 cells at an E:T ratio of 1:5 in CTL media with no cytokines, rhTPO (50 ng/mL) or EP (0.1 μg/mL). After one killing (no cytokine condition) or three sequential killings (rhTPO and EP conditions), cells were collected and dead cells removed (Dead Cell Removal Kit, Miltenyi) (FIG. 4A). For confocal microscopy, T cells and fresh BV173 target cells were mixed at E:T ratio of 1:2, incubated for ten minutes in a tube and ten minutes on silane-coated glass slides (Electron Microscopy Sciences) at 37° C. Cells were then permeabilized and fixed with Perm/Fix solution (BD) for 15 minutes at room temperature and stained with anti-Pericentrin (rabbit, Abcam) and anti-Perforin Alexa-488 (mouse, BD Biosciences) primary antibodies. Phalloidin 568 (Life Technologies) was used to detect F-actin. Cells were imaged as Z stacks of 0.2 μm thickness to cover their entire volume on a Leica TCS SP8 laser scanning microscope using a 100× objective. Images were acquired with the LASAF software (Leica) and analyzed with Imaris software (Imaris) and Fiji.

c-MPL+ T cells = assay: EP dose-titration, T cell expansion on OKT3/CD28-coated plates; format: cell-based, human
Protocol: Similar results were obtained with the TPO small molecule agonist EP. A dose-titration experiment was used to determine the optimal concentration of EP to support c-MPL+ T cell expansion (FIG. 2C). EP was previously shown to inhibit leukemia cell proliferation at higher concentrations (1-10 μg/ml) by reduction of intracellular iron, a c-MPL independent effect (Roth et al., 2012). NT or c-MPL+ T cells were re-activated on OKT3/CD28-coated plates in the presence of different EP concentrations and expansion of viable T cells was determined after 7 days. […] Thus, the effective EP concentration for c-MPL+ T cells was about 1 log lower than in previous reports assessing effects of EP on megakaryocytic progenitor cells or leukemia cells *Roth et al., 2012; Will et al., 2009). To assess c-MPL ligand-dependent signaling in TCR+c-MPL+ T cells, cells were left untreated (noCK) or treated with TPO50 or EP for 1 (left) or 24 hours (right). […] Next, it was evaluated whether rhTPO enhanced the anti-tumor function of TCR+c-MPL+ T cells using two different HLA-A*0201+survivin+hematologic malignancies as targets (U266 multiple myeloma, BV173 leukemia) (FIGS. 2E-2F). […] Again, addition of IL2 led to significant but antigen-independent enhancement of T cell expansion.

[2] = after three tumor cell challenges
[3] = baseline after T cell expansion

CC1=NN(c2ccc(C)c(C)c2)C(=O)/C1=N\Nc1cccc(-c2cccc(C(=O)O)c2)c1O [EP, eltrombopag, reference compound]
MTOC to synapse distance, co-culture [1, 2]: 1.09±1.16 μm
perforin distance to the synapse (perforin convergence), co-culture [1, 2]: 4.25±1.28 μm
actin accumulation at the synapse, co-culture ([1]; after three tumor cell challenges, rhTPO 50 ng/mL or EP 0.1 μg/mL): 53.29±12.47%
MTOC to synapse distance, baseline [1, 3]: 2.42±2.14 μm
actin accumulation at the synapse, baseline [1, 3]: 40.95±14.82%
perforin distance to the synapse (perforin convergence), baseline [1, 3]: 4.26±2.04 μm
effect of EP treatment at 3 μg/ml on T cells (c-MPL+ T cells; 3 μg/ml): uniformly lethal to T cells
effect of EP levels higher than 0.1 μg/ml on T cells (c-MPL+ T cells; 7 days): toxic to the T cells
EP concentration retained to support c-MPL+ T cell expansion (c-MPL+ T cells; 7 days, OKT3/CD28-coated plates): 0.1 µg/mL
